Experimental data as given in US11304945B2, “Pharmaceutical composition and method for preparing same” (Jiangsu Hengrui Medicine Co., Ltd., priority 2017, dated 2022).

Assay: Pharmacokinetics (PK) study in animals
Assay type: in vivo
Details: both sexes, dog; beagle dogs, oral, 30 mg/kg, plasma
Method: 12 beagle dogs were grouped into two groups (6 beagle dogs per group, half male and half female). The beagle dogs were fasted for more than 12 h before the experiment, and food was provided 4 h after the drug administration on the day of the experiment. Water was not deprived during the experiment. The crystal form of compound A and the solid dispersion of compound A, respectively (the ratio of compound A to hydroxypropyl methylcellulose acetate succinate was 1:1, according to the formulation of Experimental Example 3), were administered orally to the two groups of animals with an administration dose of 30 mg/kg. 0.6 mL of blood was taken from climb veins before administration and 0.25, 0.5, 1.0, 2.0, 4.0, 6.0, 8.0, 12, 24 and 72 h after administration. The blood was stored in an ethylenediaminetetraacetic acid (EDTA) anticoagulant tube, and centrifuged for 10 minutes at 3500 rpm (4° C.) to separate the blood plasma. The plasma was stored at −70° C.
The concentration of API in the blood plasma and the administrated solution was determined by liquid chromatography-tandem mass spectrometry (LC/MS/MS). The pharmacokinetic parameters of beagle dogs after drug administration were calculated with the resulting plasma concentration using the non-compartmental model of Phoenix WinNonlin 6.4 software.

- AUC(0-inf): 3870 ± 3170 ng·h/mL
- Cmax: 630 ± 530 ng/mL
- half-life: 3.02 ± 0.65 h
Compound: CC#CC(=O)N1CC[C@@H](n2cc(-c3ccc(Oc4c(F)cccc4F)cc3)c3c(N)n[nH]c(=O)c32)C1 [Crystal form of compound A, (R)-4-amino-1-(1-(but-2-ynoyl)pyrrolidin-3-yl)-3-(4-(2,6-difluorophenoxy)phenyl)-1,6-dihydro-7H-pyrrolo[2,3-d]pyridazin-7-one]
